Laboratory results published in patent US20230160018A1, “CRYBETAB2 PREDICTS POOR BREAST CANCER OUTCOME AND SENSITIZES TUMORS TO NUCLEOLIN AND CDK INHIBITION” (The Johns Hopkins University, priority 2020, published 2023).

Tested on: MCF10AT1-vector tumors
Test: MCF10AT1-vector (CRYβB2-lacking) xenograft tumor growth in NSG mice
Assay type: in vivo
Details: palbociclib 50 mg/kg oral, 5 days/week, 2 weeks; tumors lack CRYβB2 expression

SMILES: CC(=O)c1c(C)c2cnc(Nc3ccc(N4CCNCC4)cn3)nc2n(C2CCCC2)c1=O [palbociclib]
- tumor size: no effect
